{"source": "patent US8694073B2", "about": "“Predicting efficacy of psychiatric treatment” (University of Utah Research Foundation, priority 2008, dated 2014)", "key": {"MDD subjects": {"tested_on": "MDD subjects", "experiment": "4-week open T3 augmentation of SSRI, HAMD-17 depression rating", "format": "in vivo, human", "from_the_text": "19 depressed subjects were recruited through advertisements and clinical referrals for a treatment study at Massachusetts General Hospital between 2001 and 2003, and underwent ^31P MRS scans before and after antidepression treatment. All 19 depressed subjects were between ages of 18 and 65, and suffered from MDD, as determined by pre-antidepression treatment score of ≧16 on the HAMD-17 scale. All 19 MDD subjects had previously shown minimal or no response to treatment with an SSRI taken for ≧8 weeks, with ≧4 weeks at a stable dose (fluoxetine ≧40 mg/day, sertraline ≧100 mg/day, paroxetine ≧40 mg/day, citalopram ≧40 mg/day, escitalopram ≧20 mg/day).\nThe HAMD-17 scale was administered every 2 weeks.\nNonparametric Wilcoxon rank sum (Mann-Whitney U) test was used to compare baseline levels of ^31P MRS metabolites between MDD subjects and normal control subjects. Clinical outcome was defined as response to treatment (HAMD-17 reduction ≧50% during treatment)."}, "TSH": {"tested_on": "TSH", "experiment": "TSH level by solid-phase radioimmunoassay before treatment and at 4-weeks follow-up", "format": "in vivo, human", "conditions": "MDD subjects n=19, after 4 weeks T3; baseline TSH 1.75 ± .71"}}, "note": "Values joined by “and” are separate entries in the source; they are usually repeats but may differ in a detail not shown here. Equal values may be shown once."}
{"smiles": "N[C@@H](Cc1cc(I)c(Oc2ccc(O)c(I)c2)c(I)c1)C(=O)O", "note": "[T3, triiodothyronine]", "values": [{"measurement": "mean severity of depression HAMD-17 after 4 weeks of treatment", "setting": "MDD subjects; MDD subjects n=19, T3 50 μg daily added to existing SSRI, baseline HAMD-17 20.3±3.6", "value": "13.3±6.6"}, {"measurement": "treatment responders (HAMD-17 reduction ≧50%)", "setting": "MDD subjects; MDD subjects, T3 50 μg daily added to SSRI, 4 weeks, seven subjects", "value": "38.9% and 36.8%"}, {"measurement": "clinical remission (final HAMD-17<7)", "setting": "MDD subjects; MDD subjects, T3 50 μg daily added to SSRI, 4 weeks, six subjects", "value": 31.6, "unit": "%"}, {"measurement": "Final TSH", "setting": "TSH", "value": ".10 ± .24 mIU/L"}]}
